Data reported in US9394284B2, “Compounds act at multiple prostaglandin receptors giving a general anti-inflammatory response” (Allergan, Inc., priority 2010, dated 2016).

Tests used:
[1] = tested on: Dutch-belted pigmented rabbits; assay: Arachidonate induced uveitis, anterior chamber leukocyte infiltration; format: in vivo, rabbit; conditions: topical, concentrations of 0.1, 0.3 and 1%; sodium arachidonate challenge; FIG. 12
Procedure: Arachidonate Induced Uveitis
The rational for this protocol is to use arachidonate to directly produce ocular anterior segment uveitis, as opposed to using lipopolysaccharide (LPS) to indirectly release arachidonic acid.
Conscious male or female Dutch-belted pigmented rabbits weighing 2.5-3 kg were used for all in vivo slit lamp studies. Four animals were employed per test group. The right eye of each animal receiving 35 μl of topically administered test and the contralateral left eye of each animal receiving 35 μl of topically administered vehicle (t=0 minutes), followed 30 minutes later by treatment with 35 μl of 0.5% sodium arachidonate onto the surface of both eyes (t=30 minutes). Both eyes were examined by slit lamp 60 minutes following sodium arachdionate challenge (t=90 minutes) at 16× magnification under both white light and blue light illumination at an approximate angle of 45° through 1 mm and 5 mm slit widths.
Measurement of Anterior Chamber Leukocyte Infiltration:
Anterior chamber leukocyte infiltration was measured using a numerical scoring system to estimate cell number per field defined by a 5 mm slit width: 0=no cells per field (no response); 1=1-10 cells per field (mild); 2=11-20 cells per field (moderate); 3=[…] cells per field (severe); 4=>50 cells per filed (florid). Results are reported as the mean score value±S.E.M.

[2] = tested on: Strains TA 98 and TA 100; assay: Ames Test for mutagenicity; format: cell-based
Procedure: The compounds of FIGS. 3 and 3(a) were tested for mutagenicity by means of the Ames Test using Strains TA 98 and TA 100. The results were negative for both compounds.

[3] = tested on: allergic conjunctival itch; assay: Allergic conjunctival itch model; format: in vivo; conditions: FIGS. 10 and 11
Procedure: The compounds of this invention were tested according to the method described in “Characterization of Receptor Subtypes Involved in Prostanoid-Induced Conjunctival Pruritis and Their Role in Mediating Conjunctival Itching”, Vol. 279, No. 1, (JPET) 279, 137-142' 1996 for their efficacy in alleviating itch.

| SMILES | anterior chamber leukocyte infiltration (uveitis model) [1] | mutagenicity (Ames Test) [2] | number of itch-scratch episodes [3] |
| --- | --- | --- | --- |
| CCC(CC)COc1ccc(Br)cc1Cn1nc(CCC(=O)O)cc1C [Example 3, 3-{1-[5-Bromo-2-(2-ethyl-butoxy)-benzyl]-5-methyl-1H-pyrazol-3-yl}-propionic acid] | dose dependent response | negative | significantly lower number of itch-scratch episodes |
| CCC(CC)COc1ccc(Cl)cc1Cn1nc(CCC(=O)O)cc1C [Example 3a, 3-{1-[5-Chloro-2-(2-ethyl-butoxy)-benzyl]-5-methyl-1H-pyrazol-3-yl}-propionic acid] | dose dependent response | negative | significantly lower number of itch-scratch episodes |
